Results taken from US8937044B2, “Process for the synchronization of ovulation for timed breeding without heat detection” (priority 2003, dated 2015).

Assays:
Format in all cases: in vivo, swine
[1] = test system: postpartum sows; test: Pregnancy rate after deslorelin treatment in sows, summary of Tables 2-5; conditions: Table 6 summary
Protocol: Approximately 170 postpartum sows were randomly divided into two equal groups comprised of controls and treated. Following weaning, the controls were detected for estrus and bred following the normal standard operating procedures for the farms on which they resided. The treated sows received a 50 mcg dose of deslorelin in SAIB at 96 hours post-weaning and were bred with a single insemination 28+/−2 hours later with no regard to estrus detection. The sows were examined for pregnancy by ultrasound at 21 days and slaughtered around 28 days post breeding. The entire reproductive tract was removed and corpora lutea and embryos were counted. Postpartum sows were randomly distributed into three different groups comprised of Controls, Treatment 1, and Treatment 2, with the exception of Site 3, which was divided into two groups, Control and Treatment 2. Control sows were detected for estrus following weaning, and bred following the normal standard operating procedures for the farms on which they resided. Treatment 1 sows were detected for estrus following weaning, and received a 50 mcg dose of deslorelin in the morning when standing and were bred by AI 4 hours later and again at 24+/−2 hours later. Treatment 2 sows received a 50 mcg dose of deslorelin in SAIB at 96 or 120 hours post-weaning and were bred with a single insemination 28+/−2 hours later with, no regard to estrus detection.

[2] = test system: mature postpartum sows; test: Deslorelin at first detected estrus in postpartum sows, AI breeding (Example 2)
Protocol: Sows were assigned randomly in blocks of two to either control or to be injected intravulvar with 50 mcg of deslorelin in SAIB at the time of estrus detection for sows first detected in estrus in the a.m. and 12 hours later for those first detected in estrus in the p.m. Treated animals were bred AI upon detected estrus and again 24 hours later if still in estrus. Controls received a saline injection on first detected estrus behavior estrus detection and were bred according to the farm's normal procedures.

[3] = test system: postpartum sows; test: Timed deslorelin injection 96 h post-weaning and single timed insemination without estrus detection (Example 3)
Protocol: Approximately 170 postpartum sows were randomly divided into two equal groups comprised of controls and treated. Following weaning, the controls were detected for estrus and bred following the normal standard operating procedures for the farms on which they resided. The treated sows received a 50 mcg dose of deslorelin in SAIB at 96 hours post-weaning and were bred with a single insemination 28+/−2 hours later with no regard to estrus detection. The sows were examined for pregnancy by ultrasound at 21 days and slaughtered around 28 days post breeding. The entire reproductive tract was removed and corpora lutea and embryos were counted.

[4] = test system: LH; test: LH response (RIA) in ovariectomized estrogen primed gilt model, dose response study; conditions: single injection of 50 mcg in SAIB
Protocol: A dose response study was performed using deslorelin in SAIB in an ovariectomized estrogen primed gilt model (Barb, et al. (1999) Proceed. Int'l. Symp. Control. Rel. Bioact. Mater., 26).

[5] = test system: postpartum sows; test: Litter size after deslorelin treatment in sows, three farm sites (Example 4); conditions: Tables 3-5, three sites, regardless of estrus detection
Source text: Postpartum sows were randomly distributed into three different groups comprised of Controls, Treatment 1, and Treatment 2, with the exception of Site 3, which was divided into two groups, Control and Treatment 2. Control sows were detected for estrus following weaning, and bred following the normal standard operating procedures for the farms on which they resided. Treatment 1 sows were detected for estrus following weaning, and received a 50 mcg dose of deslorelin in the morning when standing and were bred by AI 4 hours later and again at 24+/−2 hours later. Treatment 2 sows received a 50 mcg dose of deslorelin in SAIB at 96 or 120 hours post-weaning and were bred with a single insemination 28+/−2 hours later with, no regard to estrus detection.

CCNC(=O)[C@@H]1CCCN1C(=O)[C@H](CCCN=C(N)N)NC(=O)[C@H](CC(C)C)NC(=O)[C@@H](Cc1c[nH]c2ccccc12)NC(=O)[C@H](Cc1ccc(O)cc1)NC(=O)[C@H](CO)NC(=O)[C@H](Cc1c[nH]c2ccccc12)NC(=O)[C@H](Cc1cnc[nH]1)NC(=O)[C@@H]1CCC(=O)N1 [Deslorelin, deslorelin]
pregnancy rates (in words) [1]: normal pregnancy rates were obtained
Pregnancy Rate ([2]; 50 μg deslorelin acetate (1 ml) intravulvar at first estrus detection, AI, again next day if in estrus, n = 75): 91%
pregnancy rates, Control versus Treated (in words) ([2]; 50 mcg in SAIB intravulvar at estrus detection): no significant difference
Embryo Survival ([3]; 50 mcg in SAIB 96 h post-weaning, single insemination 28+/-2 h later): 64%
Sows Pregnant ([3]; 50 mcg in SAIB 96 h post-weaning, single insemination 28+/-2 h later, 84 sows in group): 60
Pregnancy Rate ([3]; 50 mcg in SAIB 96 h post-weaning, single insemination 28+/-2 h later, no estrus detection): 71%
pregnancy rates (in words) ([3]; single timed injection in SAIB post-weaning, single timed insemination, no estrus detection): normal pregnancy rates were attained
time at which LH returned to base level [4]: ≤ 18 h
LH peak relative to normal value ([4]; normal value from Hansel et al. 1973): about twice normal value
litter sizes (in words) [5]: normal litter sizes
